The values that follow come from patent US7507727B2, “Substituted quinobenzoxazine analogs and methods of using thereof” (Cylene Pharmaceuticals, Inc., priority 2003, dated 2009).

For one experiment, the system named is HeLa cells. The experiment in a line: MTS cell proliferation and/or cytotoxicity assay. In kind it is cell-based, Human. The conditions noted are these: Homo sapiens, HeLa, 72 h, concentration at which 50% of antiproliferative cell response is seen; 3 days incubation; read-out: MTS Data Hella. On the procedure:
Cell culture. Human cervical epithelial cells (HeLa cells) were obtained from American Type Culture Collection (Manassas, Va.). Cells were grown in Eagle's minimum essential medium (MEM, Hyclone, Utah) supplemented with 2 mM Glutamine, 0.1 mM nonessential amino acid, 1 mM Na Pyruvate, 1.5 g/L NaHCO3, 50 mg/L gentamicin, and 10% fetal bovine serum (Hyclone, USA) in a humidified atmosphere of 5% CO2 at 37° C.
MTS assays. Antiproliferative effects of the compounds were tested by the CellTiter 96 AQueous assay (Promega, WI), which is a calorimetric assay for determining the number of viable cells. (See, e.g., Wang, L., et al., Methods Cell Sci (1996) 18:249-255). In one example, cells (4,500 cells/well) were seeded on 96 well flat bottom plates (Corning, N.Y.) in 100 μl of culture medium without any anticancer drug on day 0, and the culture medium was exchanged for that //contained anticancer drugs at various concentrations on day 1. After incubation for 3 days under normal growth conditions (on day 4), the monolayers were washed once in PBS, and the medium was switched to 100 μl of PBS in each of the 96 well plate. After mixing MTS and PMS at the ratio of 20:1, 20 μl of MTS/PMS solution was added to each of the 96 well plate and incubated for 4 hours in a humidified atmosphere of 5% CO2 at 37° C. The absorbance was read at 490 nm using FLUOstar Galaxy 96 well plate reader (BMG Labtechnologies, Germany). μM concentrations (MTS data) reported in Table 1 are concentrations at which 50% of antiproliferative cell response is seen.
As for `CN(C)CCCCNc1c(F)cc2c(=O)c(C(=O)NCCCn3ccnc3)cn3c2c1Oc1cc2c(cc1-3)oc1ccccc12` [compound 509], the IC50 is 3100 nM.
Turning to `O=C(NCCN1CCCC1)c1cn2c3c(c(N4CC5CCCNC5C4)ccc3c1=O)Oc1cc3ccccc3cc1-2` (stereo not shown) [compound 544], the IC50 amounted to 200 nM.
Turning to `NC1CCN(c2c(F)cc3c(=O)c(C(=O)NCCN4CCOCC4)cn4c3c2Oc2cc3c(cc2-4)oc2ccccc23)C1` (stereo not shown) [compound 530], the IC50 came out at 720 nM.
On the same count and under the same terms, then `CN(C)CCCCNC(=O)c1cn2c3c(c(N4CC[C@H](N)C4)c(F)cc3c1=O)Oc1ccccc1-2` [compound 108], with 460 nM; and `CN1CCN(CCCNC(=O)c2cn3c4c(c(N5CCC(N)C5)c(F)cc4c2=O)Oc2cc4c(cc2-3)oc2ccccc24)CC1` (stereo not shown) [compound 1467], with 350 nM; and `N[C@H]1CCN(c2c(F)cc3c(=O)c(C(=O)NCCN4CCOCC4)cn4c5cc6c(cc5oc2c34)c(=O)c2ccccc26)C1` [compound 579], with 490 nM.
With `CN1CCCC1CCNc1c(F)cc2c(=O)c(C(=O)NCCN3CCCC3)cn3c2c1Oc1c-3ccc2ccccc12` (stereo not shown) [compound 497], the IC50 was 2100 nM.
As to `CC(C)(C)OC(=O)NC1CCN(c2c(F)cc3c(=O)c(C(=O)NCCN4CCCC4)cn4c3c2Oc2cc3c(cc2-4)oc2ccccc23)C1` (stereo not shown) [compound 384], the IC50 was 370 nM.

Staying with this experiment, now noted: Homo sapiens, HeLa, HeLa cells, MTS; read-out: Hela MTS.
Take `CCN(CC)CCCC(C)NC(=O)c1cn2c3c(c(N4CC5CCCNC5C4)c(F)cc3c1=O)Oc1cc3ccccc3cc1-2` (stereo not shown) [compound 1727]: the IC50 stood at 360 nM.
Still for that read-out and setting: then `CN1CCCC1CCNC(=O)c1cn2c3c(c(NCCCN(CCO)CCO)c(F)cc3c1=O)Oc1cc3ccccc3cc1-2` (stereo not shown) [compound 1686], with 400 nM; and `CN1CCCC1CCNC(=O)c1cn2c3c(c(NCCc4ccc(O)c(O)c4)c(F)cc3c1=O)Oc1cc3ccccc3cc1-2` (stereo not shown) [compound 1680], with 1800 nM.
Same read-out and setting: then `NC1CCN(c2ccc3c(=O)c(C(=O)NCCCN4CCOCC4)cn4c3c2Oc2cc3ccccc3cc2-4)C1` (stereo not shown) [compound 1557], with 1500 nM; and `CN(C)CCCCNC(=O)c1cn2c3c(c(NCCN4CCCC4)ccc3c1=O)Oc1cc3ccccc3cc1-2` [compound 1520], with 200 nM.

The same experiment, now with this note: concentration at which 50% of antiproliferative cell response is seen; 3 days incubation; read-out: MTS Data Hella.
`CN1CCCC1CCNC(=O)c1cn2c3c(c(NC[C@@H]4CCCO4)c(F)cc3c1=O)Oc1cc3ccccc3cc1-2` (stereo partly shown) [compound 33]: the IC50 worked out at 290 nM.
For the compound `N[C@H]1CCN(c2c(F)cc3c(=O)c(C(=O)NCCN4CCCC4)cn4c3c2Oc2ccccc2-4)C1` [compound 35], the IC50 was found to be 210 nM.

The next experiment deals with c-Myc template DNA (c-myc quadruplex). Nature of the experiment: Quadruplex binding / stop assay (Taq polymerase arrest, capillary electrophoresis). The conditions noted are these: read-out: S DATA; Table 1D, stop assay data.
In the case of `CCN(CC)CCCC(C)NC(=O)c1cn2c3c(c(N4CC5CCCNC5C4)c(F)cc3c1=O)Oc1cc3ccccc3cc1-2` (stereo not shown) [compound 1727], the IC50 amounted to 0.75 µM.
On to `CN1CCCC1CCNC(=O)c1cn2c3c(c(NCCCN(CCO)CCO)c(F)cc3c1=O)Oc1cc3ccccc3cc1-2` (stereo not shown) [compound 1686], for which the IC50 amounted to 0.375 µM.
`CN1CCCC1CCNC(=O)c1cn2c3c(c(NCCc4ccc(O)c(O)c4)c(F)cc3c1=O)Oc1cc3ccccc3cc1-2` (stereo not shown) [compound 1680]: the IC50 came out at 0.75 µM.
As to `NC1CCN(c2ccc3c(=O)c(C(=O)NCCCN4CCOCC4)cn4c3c2Oc2cc3ccccc3cc2-4)C1` (stereo not shown) [compound 1557], the IC50 stood at 0.75 µM.
Take `CN(C)CCCCNC(=O)c1cn2c3c(c(NCCN4CCCC4)ccc3c1=O)Oc1cc3ccccc3cc1-2` [compound 1520]: the IC50 came out at 0.375 µM.
As for `CC1CCCCN1CCCNc1c(F)cc2c(=O)c(C(=O)NCCC3CCCN3C)cn3c2c1Oc1cc2ccccc2cc1-3` (stereo not shown) [compound 1489], the IC50 stood at 0.95 µM.
For `CN1CCCC1CCNC(=O)c1cn2c3c(c(N4CCC(c5cnccn5)C4)c(F)cc3c1=O)Oc1ccc(C#N)cc1-2` (stereo not shown) [compound 1777], the IC50 was determined as 6.8 µM.
On the same count and under the same terms, for `CN1CCCC1CCNC(=O)c1cn2c3c(c(NCC(O)CO)c(F)cc3c1=O)Oc1cc3ccccc3cc1-2` (stereo not shown) [compound 1677] the value was 1.75 µM.

Still in this experiment, the particulars now being: read-out: Stop Data c-Myc μM; concentration at which 50% of the DNA was arrested (arrested:full-length 1:1).
Regarding `CN1CCCC1CCNC(=O)c1cn2c3c(c(NC[C@@H]4CCCO4)c(F)cc3c1=O)Oc1cc3ccccc3cc1-2` (stereo partly shown) [compound 33], the IC50 amounted to 3 µM.
In the case of `N[C@H]1CCN(c2c(F)cc3c(=O)c(C(=O)NCCN4CCCC4)cn4c3c2Oc2ccccc2-4)C1` [compound 35], the IC50 was determined as 3 µM.
For the compound `CN(C)CCCCNc1c(F)cc2c(=O)c(C(=O)NCCCn3ccnc3)cn3c2c1Oc1cc2c(cc1-3)oc1ccccc12` [compound 509], the IC50 was determined as 0.375 µM.
On to `O=C(NCCN1CCCC1)c1cn2c3c(c(N4CC5CCCNC5C4)ccc3c1=O)Oc1cc3ccccc3cc1-2` (stereo not shown) [compound 544], for which the IC50 turned out to be 0.375 µM.
With `NC1CCN(c2c(F)cc3c(=O)c(C(=O)NCCN4CCOCC4)cn4c3c2Oc2cc3c(cc2-4)oc2ccccc23)C1` (stereo not shown) [compound 530], the IC50 is 0.375 µM.
The same measure, in the same setting: then `CN(C)CCCCNC(=O)c1cn2c3c(c(N4CC[C@H](N)C4)c(F)cc3c1=O)Oc1ccccc1-2` [compound 108], with 1.75 µM.
For the compound `CN1CCN(CCCNC(=O)c2cn3c4c(c(N5CCC(N)C5)c(F)cc4c2=O)Oc2cc4c(cc2-3)oc2ccccc24)CC1` (stereo not shown) [compound 1467], the IC50 came out at 0.25 µM.
For `N[C@H]1CCN(c2c(F)cc3c(=O)c(C(=O)NCCN4CCOCC4)cn4c5cc6c(cc5oc2c34)c(=O)c2ccccc26)C1` [compound 579], the IC50 worked out at 0.18 µM.
As to `CN1CCCC1CCNc1c(F)cc2c(=O)c(C(=O)NCCN3CCCC3)cn3c2c1Oc1c-3ccc2ccccc12` (stereo not shown) [compound 497], the IC50 amounted to 0.41 µM.
With `CC(C)(C)OC(=O)NC1CCN(c2c(F)cc3c(=O)c(C(=O)NCCN4CCCC4)cn4c3c2Oc2cc3c(cc2-4)oc2ccccc23)C1` (stereo not shown) [compound 384], the IC50 turned out to be 0.75 µM.
On the same count and under the same terms, then `CN(C)CCCCNC(=O)c1cn2c3c(c(N4CCC(N)C4)c(F)cc3c1=O)Oc1ccccc1-2` (stereo not shown) [compound 460], with 0.75 µM; and `N[C@@H]1CCN(C(=O)c2cn3c4c(c(N5CC[C@@H](N)C5)c(F)cc4c2=O)Oc2c-3ccc3ccccc23)C1` [compound 78], with 2.5 µM; and `O=C(NCCCN1CCOCC1)c1cn2c3c(c(NCCN4CCCC4)c(F)cc3c1=O)Oc1c-2ccc2ccccc12` [compound 137], with 1.75 µM.
For `O=C(NCCN1CCCC1)c1cn2c3cc4c(cc3oc3c(N5CC6CCCNC6C5)c(F)cc(c1=O)c32)c(=O)c1ccccc14` (stereo not shown) [compound 590], the IC50 was determined as 0.18 µM.
